These results are taken from patent US4374843A, “2-Guanidino-4-heteroarylthiazoles” (Pfizer Inc., priority 1981, dated 1983).

Structures can show the parent of a compound that is named as a salt. Some results are limits rather than exact numbers.

One assay concerns Heidenhain pouch dogs. As to the kind of experiment: Gastric acid antisecretory activity in pentagastrin-stimulated Heidenhain pouch dogs. In kind it is in vivo, dog. The conditions noted are these: Canis lupus familiaris, iv, 1.5 h; 1 mg/kg intravenously, 90 min after start of pentagastrin infusion; lowest acid output after drug vs mean acid output immediately before drug; conscious fasted dogs; read-out: inhibited gastric acid secretion. As for the experimental part: The gastric acid antisecretory activity of compounds of the present invention was determined in overnight fasted, conscious Heidenhain pouch dogs. Pentagastrin (Pentavlon-Ayerst was used to stimulate acid output by continuous infusion into a superficial leg vein at doses earlier determined to stimulate near maximal acid output from the gastric pouch. Gastric juice was collected at 30 minute intervals following the start of a pentagastrin infusion and measured to the nearest 0.1 ml. Ten collections were taken for each dog during an experiment. Acid concentration was determined by titrating 1.0 ml of gastric juice to pH 7.4 with 0.1 N sodium hydroxide using an Autoburette and a glass electrode pH meter (Radiometer).
Drug or vehicle was given intraveneously 90 minutes following the start of the pentagastrin infusion, at a dose of 1 mg/kg. Gastric acid antisecretory effects were calculated by comparing the lowest acid output after drug administration with the mean acid output immediately before drug.

A further assay deals with T1, H2 -receptor (Cavia porcellus, UniProt P47747).
T1 construct: the heart removed and the right atria dissected free; from tissue; host or cells: isolated guinea pig right atria
T1 sequence (P47747 whole entry): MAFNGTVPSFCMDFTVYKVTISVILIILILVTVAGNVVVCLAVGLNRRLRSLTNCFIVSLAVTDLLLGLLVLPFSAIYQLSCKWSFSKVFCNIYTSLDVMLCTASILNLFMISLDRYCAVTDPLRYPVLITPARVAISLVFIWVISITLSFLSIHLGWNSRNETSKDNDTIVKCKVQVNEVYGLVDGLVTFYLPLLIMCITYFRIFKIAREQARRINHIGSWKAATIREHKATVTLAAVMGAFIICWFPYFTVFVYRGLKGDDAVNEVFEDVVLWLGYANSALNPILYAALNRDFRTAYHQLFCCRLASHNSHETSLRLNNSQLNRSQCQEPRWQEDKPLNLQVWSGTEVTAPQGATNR
The experiment in a line: Histamine-H2 antagonist activity in isolated guinea pig right atria. In kind it is cell-based. The conditions noted are these: histamine dose-response curve in presence and absence of antagonist, 32°; for Kb: Krebs-Henseleit buffer pH 7.4, read-out: pA2 (apparent dissociation constant of the H2-receptor antagonist) (converted). The method, then: The histamine-H2 antagonist activity of compounds of the present invention was determined by the following procedure:
Guinea pigs are killed rapidly with a blow to the head, the heart removed and the right atria dissected free. Atria are suspended, isometrically, in a temperature-controlled (32°±2°) tissue bath (10 ml containing oxygenated (95% O2; 5% CO2) Krebs-Henseleit buffer (pH 7.4) and are allowed to stabilize approximately one hour during which time the tissue bath is flushed several times. Individual atrial contractions are followed with a force-displacement transducer connected to a cardiotachometer and Grass polygraph recorder. After obtaining a dose-response curve to histamine, the bath containing each atrium is flushed several times with fresh buffer and the atria re-equilibrated to basal rates. Following the return to basal rate, test compounds are added at selected final concentrations and the histamine dose-response curve is again determined in the presence of antagonist. Results are expressed as dose-ratios, the ratio of histamine concentrations required to produce one-half of maximal stimulation in the presence and absence of antagonist, and the apparent dissociation constant of the H2 -receptor antagonist pA2, is determined.

Take `CCCNc1nc(-c2csc(NC(=N)N)n2)c[nH]1` [Example 23, 2-(Guanidino-4-(2-N-n-propylamino-4-imidazoyl)thiazoledihydrochloride]: the inhibition at 1 mg/kg in the assay on Heidenhain pouch dogs is at least 15%. Further, on H2 -receptor, the Kb was under 2 µM.
Take `CNc1nc(-c2csc(NC(=N)N)n2)cs1` [Example 6, 2-Guanidino-4-(2-N-methylamino-4-thiazoyl)thiazole]: the inhibition at 1 mg/kg with Heidenhain pouch dogs is at least 15%. Besides, the Kb on H2 -receptor was under 2 µM.
Consider `N=C(N)Nc1nc(-c2c[nH]c(CO)n2)cs1` [Example 50, 2-Guanidino-4-(2-hydroxymethyl-4-imidazolyl)thiazole hydrobromide], for which, in the assay on Heidenhain pouch dogs, the inhibition at 1 mg/kg is at least 15%. Besides, on H2 -receptor, the Kb was under 2 µM.
The like results for `Cc1ncc(-c2csc(N=C(N)N)n2)[nH]1` [Example 37, 2-Guanidino-4-(2-methyl-4-imidazolyl)thiazole] were, in that order, at least 15% and under 2 µM.
Regarding `CCCc1n[nH]c(-c2csc(NC(=N)N)n2)n1` [Example 15, 2-Guanidino-4-(3-propyl-5-1,2,4-triazolyl)thiazole hemihydrate], the inhibition at 1 mg/kg in the assay on Heidenhain pouch dogs is at least 15%. Besides, the Kb on H2 -receptor is under 2 µM.
As for `N=C(N)Nc1nc(-c2c[nH]c(Nc3ccccc3)n2)cs1` [Example 46, 2-Guanidino-4-(2-N-phenylamino-4-imidazolyl)thiazole], the Kb on H2 -receptor was under 2 µM.
Turning to `N=C(N)Nc1nc(-c2c[nH]c(NCc3ccccc3)n2)cs1` [Example 26, 2-Guanidino-4-(2-N-benzylamino-4-imidazoyl)thiazole dihydrochloride], the inhibition at 1 mg/kg in the assay on Heidenhain pouch dogs was at least 15%. Further, the Kb on H2 -receptor is under 2 µM.
The like results for `CNc1nc(-c2csc(NC(=N)N)n2)c[nH]1` [Example 21, 2-Guanidino-4-(2-N-methylamino-4-imidazoyl)thiazole dihydrochloride] were, in that order, at least 15% and under 2 µM.
For the compound `N=C(N)Nc1nc(-c2c[nH]c(NCCc3ccccc3)n2)cs1` [Example 27, 2-Guanidino-4-(2-N-phenethylamino-4-imidazoyl)thiazole dihydrochloride], the inhibition at 1 mg/kg with Heidenhain pouch dogs was at least 15%. In addition, the Kb at H2 -receptor was under 2 µM.
As for `CCNc1nc(-c2csc(NC(=N)N)n2)c[nH]1` [Example 22, 2-Guanidino-4-(2-N-ethylamino-4-imidazoyl)thiazole dihydrochloride], the inhibition at 1 mg/kg with Heidenhain pouch dogs is at least 15%. Also, at H2 -receptor, the Kb is under 2 µM.
For `N=C(N)Nc1nc(-c2cscn2)cs1` [Example 5, 2-Guanidino-4-(4-thiazolyl)thiazole], the inhibition at 1 mg/kg in the assay with Heidenhain pouch dogs is at least 15%. Further, at H2 -receptor, the Kb was under 2 µM.
As for `Cc1n[nH]c(-c2csc(NC(=N)N)n2)n1` [Example 13, 2-Guanidino-4-(3-methyl-5-1,2,4-triazolyl)thiazole hemihydrate], the inhibition at 1 mg/kg in the assay with Heidenhain pouch dogs was at least 15%.
Consider `N=C(N)Nc1nc(-c2nc(N)n[nH]2)cs1` [Example 11, 2-Guanidino-4-(3-amino-5-1,2,4-triazolyl)thiazole], for which the inhibition at 1 mg/kg with Heidenhain pouch dogs is at least 15%.
Consider `CCCCNc1nc(-c2csc(NC(=N)N)n2)c[nH]1` [Example 25, 2-Guanidino-4-(2-N-n-butylamino-4-imidazoyl)thiazole dihydrochloride], for which the inhibition at 1 mg/kg in the assay with Heidenhain pouch dogs is at least 15%. In addition, at H2 -receptor, the Kb is under 2 µM.
On to `CC(=O)Nc1nc(-c2csc(NC(=N)N)n2)c[nH]1` [Example 28, 2-Guanidino-4-(2-N-acetamido-4-imidazoyl)thiazole], for which the inhibition at 1 mg/kg with Heidenhain pouch dogs was at least 15%. The Kb on H2 -receptor is under 2 µM.
As for `CCc1n[nH]c(-c2csc(NC(=N)N)n2)n1` [Example 17, 2-Guanidino-4-(3-ethyl-5-1,24-triazolyl)thiazole], the inhibition at 1 mg/kg in the assay on Heidenhain pouch dogs is at least 15%. Further, the Kb at H2 -receptor is under 2 µM.
With `N=C(N)Nc1nc(-c2c[nH]c(N)n2)cs1` [Example 20, 2-Guanidino-4-(2-amino-4-imidazolyl)thiazole], the inhibition at 1 mg/kg with Heidenhain pouch dogs was at least 15%.
In the case of `Cc1nc[nH]c1-c1csc(NC(=N)N)n1` [Example 41, 2-Guanidino-4-(4-methyl-5-imidazolyl)thiazole hydrobromide], the inhibition at 1 mg/kg with Heidenhain pouch dogs was at least 15%. Also, the Kb on H2 -receptor was under 2 µM.
As to `CC(C)Nc1nc(-c2csc(NC(=N)N)n2)c[nH]1` [Example 24, 2-Guanidino-4-(2-N-i-propylamino-4-imidazoyl)thiazole dihydrochloride], in the assay on Heidenhain pouch dogs, the inhibition at 1 mg/kg is at least 15%. Also, the Kb at H2 -receptor is under 2 µM.
As to `CC(=O)Nc1nc(-c2csc(NC(=N)N)n2)cs1` [Example 7, 2-Guanidino-4-(2-N-acetylamino-4-thiazoyl)thiazole], the inhibition at 1 mg/kg with Heidenhain pouch dogs was at least 15%. Also, the Kb at H2 -receptor was under 2 µM.
For the compound `N=C(N)Nc1nc(-c2c[nH]cn2)cs1` [Example 31, 2-Guanidino-4-(4-imidazoyl)thiazole hydrobromide], the inhibition at 1 mg/kg in the assay on Heidenhain pouch dogs is at least 15%.
For `Cc1nc(C)c(-c2csc(NC(=N)N)n2)[nH]1` [Example 45, 2-Guanidino-4-(2,4-dimethyl-4-imidazolyl)thiazole hydrobromide hemihydrate], the inhibition at 1 mg/kg with Heidenhain pouch dogs was at least 15%. Moreover, on H2 -receptor (Krebs-Henseleit buffer pH 7.4), the “pA2 (apparent dissociation constant of the H2-receptor antagonist)” value is “greater than 5.7”.
For the compound `N=C(N)Nc1nc(-c2csc(N)n2)cs1` [Example 4, 2-Guanidino-4-(2-amino-4-thiazolyl)thiazole dihydrobromide], in the assay with Heidenhain pouch dogs, the inhibition at 1 mg/kg is at least 15%. Further, at H2 -receptor, the Kb was under 2 µM.
